Measured values taken from patent US4138554A, “7-[D-α-(4-Hydroxy-1,5-naphthyridine-3-carboxamido)-α-phenyl (and p-hydroxyphenyl)acetamido]-3-carbamoyloxymethyl-3-cephem-4-carboxylic acids” (priority 1977, dated 1979).
Like-named read-outs stand apart in the source and are kept apart here.

How the values were obtained:
[1] = system: S. enteritidis; assay: MIC by serial two-fold agar dilution (Mueller-Hinton agar), S. enteritidis; assay type: cell-based; conditions: Salmonella enterica; S. enteritidis A9531, Table 6; read-out: MIC
Method in brief: (§1)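 Steers' apparatus delivers inocula onto Mueller-Hinton agar containing serial two-fold dilutions; MIC is recorded per strain.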

[2] = system: P. vulgaris; assay: MIC by serial two-fold agar dilution (Mueller-Hinton agar), P. vulgaris; assay type: cell-based; conditions: Proteus vulgaris; P. vulgaris A9539, Table 6; read-out: MIC
Method in brief: as §1

[3] = system: S. aureus Smith; assay: Median curative dose in mice, infection with S. aureus Smith; assay type: in vivo; conditions: Staphylococcus aureus, sc; mice, S. aureus Smith infection, Table 5; read-out: PD50
Description: (§2) Median Curative Dose in Mgm./Kg.
(§3) Upon Subcutaneous Injection in Mice

[4] = system: E. coli Juhl; assay: Median curative dose in mice, infection with E. coli Juhl; assay type: in vivo; conditions: Escherichia coli, sc; mice, E. coli Juhl infection, Table 5; read-out: PD50
Description: as §2, §3

[5] = system: Ps. aeruginosa A9843; assay: Median curative dose in mice, infection with Ps. aeruginosa; assay type: in vivo; conditions: Pseudomonas aeruginosa, A9843, sc, mice, P. aerug. A9843 infection, Table 5; read-out: PD50
Description: as §2, §3

[6] = system: E. coli; assay: MIC by serial two-fold agar dilution (Mueller-Hinton agar), E. coli; assay type: cell-based; conditions: Escherichia coli, read-out: MIC
Method in brief: (§4)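 Agar dilution MICs were determined on Mueller-Hinton medium with two-fold compound steps and Steers' multipoint inoculation, across 31 primary-screen organisms and 61 P. aeruginosa strains.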

[7] = system: Pseudomonas (6 strains); assay: Mean % relative activity (MIC) vs sulbenicillin, Pseudomonas (6 strains); assay type: cell-based; conditions: P. aerug. (6 strains), Table 5
Protocol: Minimum inhibitory concentrations (MIC) of BB-S520 were determined by serial two-fold agar dilution method using Steers' apparatus on Meuller-Hinton agar plate against 31 test organisms for the primary screening and also against 61 strains of Pseudomonas aeruginosa for the secondary evaluation. The results are shown in Table 1 and Table 2 along with those of BB-S514 and sulbenicillin.
Minimum inhibitory concentrations (MIC) of cephalosporins in the present study were determined by serial two-fold agar dilution method using Steers' apparatus on Mueller-Hinton agar plate against 31 test organisms for the primary screening and also against 61 strains of Pseudomonas aeruginosa for the secondary evaluation.

[8] = system: S. aureus; assay: MIC by serial two-fold agar dilution (Mueller-Hinton agar), S. aureus; assay type: cell-based; conditions: Staphylococcus aureus
Method in brief: as §4

[9] = system: K. pneumoniae; assay: MIC by serial two-fold agar dilution (Mueller-Hinton agar), K. pneumoniae; assay type: cell-based; conditions: Klebsiella pneumoniae, K. pneumoniae A9977, Table 6
Method in brief: as §1

[10] = system: Pseudomonas aeruginosa; assay: MIC by agar dilution against 61 strains of Pseudomonas aeruginosa, secondary evaluation; assay type: cell-based; conditions: for MIC: Pseudomonas aeruginosa
Method in brief: as §4

## NC(=O)OCC1=C(C(=O)O)N2C(=O)C(NC(=O)[C@H](NC(=O)c3cnc4cccnc4c3O)c3ccc(O)cc3)C2SC1 (single isomer, unassigned) [BB-S530, Sodium 7-[D-(-)-α-(4-hydroxy-1,5-naphthyridine-3-carboxamido)-α-(p-hydroxyphenyl)acetamido]-3-carbamoyloxymethyl-3-cephem-4-carboxylate]
[1]
  MIC: 0.8 µg/mL
[2]
  MIC: > 100 µg/mL
[3]
  ED50: 1.3 mg/kg
[4]
  ED50: 1.8 mg/kg
[5]
  ED50: 9.3 mg/kg
[6]; E. coli A9435, Table 6
  MIC: 3.1 µg/mL
[6]; E. coli A9844, Table 6
  MIC: 0.4 µg/mL
[6]; E. coli A10664, Table 6
  MIC: 0.2 µg/mL
[6]; E. coli A20366, Table 6
  MIC: > 100 µg/mL
[6]; E. coli A20520, Table 6
  MIC: 3.1 µg/mL
[6]; E. coli A20732, Table 6
  MIC: 3.1 µg/mL
[6]; E. coli A20898, Table 6
  MIC: 100 µg/mL
[6]; E. coli Juhl A15119, Table 6
  MIC: 1.6 µg/mL
[6]; E. coli NIHJ, Table 6
  MIC: 1.6 µg/mL
[7]
  Mean % Relative Activity (SPBC = 100%): 1425%
[8]; S. aureus BX-1633 A9606, Table 6, read-out: MIC
  MIC: 3.1 µg/mL
[8]; S. aureus Smith A9537, Table 6, read-out: MIC
  MIC: 1.6 µg/mL
[8]; S. aureus Smith A15907, Table 6
  MIC: 25 µg/mL
[8]; S. aureus Smith A20239, Table 6, read-out: MIC
  MIC: 3.1 µg/mL
[8]; S. aureus Smith A20240, Table 6, read-out: MIC
  MIC: 3.1 µg/mL
[8]; S. aureus Smith A20701, Table 6, read-out: MIC
  MIC: 25 µg/mL
[9]
  MIC: 1.6 µg/mL
[10]; 61 strains of Pseudomonas aeruginosa, Table 7
  Rel. Act. (SBPC=100%): 1694%
[10]; P. aerug. (61 strains), Table 5
  Mean % Relative Activity (SPBC = 100%): 1694%
[10]; 61 strains of Pseudomonas aeruginosa, Table 7, read-out: Geometric Mean of MIC
  MIC: 1.4 µg/mL
[10]; BBRI Pa-No. 1, D15, Table 7, read-out: MIC
  MIC: 6.3 µg/mL
[10]; BBRI Pa-No. 2, VA, Table 7, read-out: MIC
  MIC: 1.6 µg/mL
[10]; BBRI Pa-No. 3, 1449VA, Table 7, read-out: MIC
  MIC: 0.8 µg/mL
[10]; BBRI Pa-No. 4, H9 D113, Table 7, read-out: MIC
  MIC: 1.6 µg/mL
[10]; BBRI Pa-No. 5, N4865KC, Table 7, read-out: MIC
  MIC: 1.6 µg/mL
[10]; BBRI Pa-No. 6, No. 5, Table 7, read-out: MIC
  MIC: 6.3 µg/mL
[10]; BBRI Pa-No. 7, Table 7, read-out: MIC
  MIC: 1.6 µg/mL
[10]; BBRI Pa-No. 8, Table 7, read-out: MIC
  MIC: 1.6 µg/mL
[10]; BBRI Pa-No. 9, Yale, Table 7, read-out: MIC
  MIC: 1.6 µg/mL
[10]; BBRI Pa-No. 10, Table 7, read-out: MIC
  MIC: 100 µg/mL
[10]; BBRI Pa-No. 11, Table 7, read-out: MIC
  MIC: 1.6 µg/mL
[10]; BBRI Pa-No. 12, Table 7, read-out: MIC
  MIC: 1.6 µg/mL
[10]; BBRI Pa-No. 14, Table 7, read-out: MIC
  MIC: 0.8 µg/mL
[10]; BBRI Pa-No. 15, Table 7, read-out: MIC
  MIC: 3.1 µg/mL
[10]; BBRI Pa-No. 16, No. 130, Table 7, read-out: MIC
  MIC: < 0.2 µg/mL
[10]; BBRI Pa-No. 17, H6 D114, Table 7, read-out: MIC
  MIC: 12.5 µg/mL
[10]; BBRI Pa-No. 18, H8 D121, Table 7, read-out: MIC
  MIC: 0.4 µg/mL
[10]; BBRI Pa-No. 19, Table 7, read-out: MIC
  MIC: 0.4 µg/mL
[10]; BBRI Pa-No. 20, Table 7, read-out: MIC
  MIC: 1.6 µg/mL
